Experimental data published in ChEMBL document CHEMBL4145512, “Design, synthesis and biological evaluation of new coumarin-dithiocarbamate hybrids as multifunctional agents for the treatment of Alzheimer's disease” (Eur J Med Chem, 2018).
Calls of active or inactive are those of the source. The calls are words filed in the database; no cut-off is given here.

Experiments:
Acetylcholinesterase [1] = target: T1, Acetylcholinesterase (Homo sapiens, UniProt P22303); test: Inhibition of human erythrocyte AChE using acetylthiocholine iodide as substrate preincubated for 6 mins followed by substrate addition measured up to 180 secs by Ellman's method
[2] = target: BuChE (butyrylcholinesterase) (Homo sapiens, UniProt P06276); test: Inhibition of human serum BuChE at 10 uM using S-butyrylthiocholine iodide as substrate preincubated for 6 mins followed by substrate addition measured up to 180 secs by Ellman's method relative to control; conditions: probe S-butyrylthiocholine iodide
Acetylcholinesterase [3] = target: T1, Acetylcholinesterase; test: Inhibition of human erythrocyte AChE at 10 uM using acetylthiocholine iodide as substrate preincubated for 6 mins followed by substrate addition measured up to 180 secs by Ellman's method relative to control
Acetylcholinesterase [4] = target: T1, Acetylcholinesterase; test: Potency index, ratio of donepenzil IC50 to compound IC50 for human erythrocyte AChE
Mus musculus [5] = test: Antialzheimer activity in scopolamine induced po dosed Kunming mouse cognitive deficit model assessed as reduction in number of errors treated for 1 hr followed by training trial and subsequent addition of scopolamine at 30 mins post trial measured for 24 hrs interval; format: functional, organism-based
[6] = Cytotoxicity against human SH-SY5Y cells assessed as cell viability at 50 uM after 24 hrs by MTT assay relative to control; format: cell-based; conditions: read-out: Activity
Mus musculus [7] = test: Cardiotoxicity in Kunming mouse at 1000 mg/kg, po measured at day 14 by microscopic analysis; format: toxicity, organism-based; conditions: in vivo
Mus musculus [8] = test: Antialzheimer activity in scopolamine induced Kunming mouse cognitive deficit model assessed as latency time at 5.2 mg/kg, po treated for 1 hr followed by training trial and subsequent addition of scopolamine at 30 mins post trial measured for 24 hrs interval; format: functional
Mus musculus [9] = test: Hepatotoxicity in Kunming mouse at 1000 mg/kg, po measured at day 14 by microscopic analysis; format: toxicity, organism-based; conditions: in vivo
Mus musculus [10] = test: Toxicity in Kunming mouse assessed as reduction in body weight at 1000 mg/kg, po observed continuously for the first 4 hrs and intermittently for next 24 hrs and occasionally thereafter for 14 days; format: organism-based; conditions: in vivo
Mus musculus [11] = test: Antialzheimer activity in scopolamine induced Kunming mouse cognitive deficit model assessed as latency time at 20.6 mg/kg, po treated for 1 hr followed by training trial and subsequent addition of scopolamine at 30 mins post trial measured for 24 hrs interval; format: functional
Mus musculus [12] = test: Antialzheimer activity in scopolamine induced Kunming mouse cognitive deficit model assessed as latency time at 10.3 mg/kg, po treated for 1 hr followed by training trial and subsequent addition of scopolamine at 30 mins post trial measured for 24 hrs interval; format: functional
[13] = Metal chelating activity assessed as compound-Zn2+ complex formation at 25 uM by UV-Vis spectrophotometry
[14] = Metal chelating activity assessed as compound-Fe2+ complex formation at 25 uM by UV-Vis spectrophotometry
[15] = Cytotoxicity against human SH-SY5Y cells assessed as cell viability at 12.5 uM after 24 hrs by MTT assay relative to control; format: cell-based; conditions: read-out: Activity
[16] = Cytotoxicity against human SH-SY5Y cells assessed as cell viability at 25 uM after 24 hrs by MTT assay relative to control; format: cell-based; conditions: read-out: Activity
[17] = Metal chelating activity assessed as compound-Cu2+ complex formation at 25 uM by UV-Vis spectrophotometry
Mus musculus [18] = test: Nephrotoxicity in Kunming mouse at 1000 mg/kg, po measured at day 14 by microscopic analysis; format: toxicity, organism-based; conditions: in vivo
Acetylcholinesterase [19] = target: T1, Acetylcholinesterase; test: Mixed type inhibition of human erythrocyte AChE at 12.5 to 50 nM using acetylthiocholine iodide as substrate preincubated for 6 mins followed by substrate addition measured up to 180 secs by Lineweaver-Burk plot analysis
Mus musculus [20] = test: Toxicity in Kunming mouse assessed as change in water consumption at 1000 mg/kg, po observed continuously for the first 4 hrs and intermittently for next 24 hrs and occasionally thereafter for 14 days; format: organism-based; conditions: in vivo
Mus musculus [21] = test: Toxicity in Kunming mouse assessed as death at 1000 mg/kg, po observed continuously for the first 4 hrs and intermittently for next 24 hrs and occasionally thereafter for 14 days; format: organism-based; conditions: in vivo
Mus musculus [22] = test: Antialzheimer activity in scopolamine induced po dosed Kunming mouse cognitive deficit model assessed as reduction in latency treated for 1 hr followed by training trial and subsequent addition of scopolamine at 30 mins post trial measured for 24 hrs interval; format: functional, organism-based
[23] = Metal chelating activity assessed as association constant for compound-Fe3+ complex formation by Job's plot analysis
Acetylcholinesterase [24] = target: T1, Acetylcholinesterase; test: […] inhibition of human erythrocyte AChE using acetylthiocholine iodide as substrate preincubated for 6 mins followed by substrate addition measured up to 180 secs by Lineweaver-Burk plot analysis
Mus musculus [25] = test: Toxicity in Kunming mouse assessed as change in food consumption at 1000 mg/kg, po observed continuously for the first 4 hrs and intermittently for next 24 hrs and occasionally thereafter for 14 days; format: organism-based; conditions: in vivo
[26] = Metal chelating activity assessed as compound-Fe3+ complex formation at 25 uM by UV-Vis spectrophotometry
in vitro = conditions: PAMPA
Description: Effective permeability at 25 ug/ml after 16 hrs by PAMPA

[27] = Cytotoxicity against human SH-SY5Y cells assessed as cell viability at 100 uM after 24 hrs by MTT assay relative to control; format: cell-based; conditions: read-out: Activity

T1 sequence (P22303 whole entry): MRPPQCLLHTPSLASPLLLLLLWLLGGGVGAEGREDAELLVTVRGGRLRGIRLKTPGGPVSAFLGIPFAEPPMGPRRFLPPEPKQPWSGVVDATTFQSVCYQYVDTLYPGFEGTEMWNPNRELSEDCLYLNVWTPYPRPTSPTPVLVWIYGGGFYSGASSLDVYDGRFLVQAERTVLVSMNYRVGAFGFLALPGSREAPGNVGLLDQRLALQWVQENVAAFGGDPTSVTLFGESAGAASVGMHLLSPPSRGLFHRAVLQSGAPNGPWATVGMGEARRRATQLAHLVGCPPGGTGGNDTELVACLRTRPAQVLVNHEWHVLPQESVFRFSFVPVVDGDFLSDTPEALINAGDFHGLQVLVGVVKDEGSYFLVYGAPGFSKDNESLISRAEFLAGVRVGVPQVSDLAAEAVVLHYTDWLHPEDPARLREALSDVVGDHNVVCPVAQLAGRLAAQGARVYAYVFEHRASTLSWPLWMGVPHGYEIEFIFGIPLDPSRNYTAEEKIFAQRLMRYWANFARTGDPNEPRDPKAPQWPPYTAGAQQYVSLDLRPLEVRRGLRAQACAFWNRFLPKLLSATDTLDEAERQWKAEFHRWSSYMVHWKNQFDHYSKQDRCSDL
BuChE (butyrylcholinesterase), sequence (P06276 whole entry): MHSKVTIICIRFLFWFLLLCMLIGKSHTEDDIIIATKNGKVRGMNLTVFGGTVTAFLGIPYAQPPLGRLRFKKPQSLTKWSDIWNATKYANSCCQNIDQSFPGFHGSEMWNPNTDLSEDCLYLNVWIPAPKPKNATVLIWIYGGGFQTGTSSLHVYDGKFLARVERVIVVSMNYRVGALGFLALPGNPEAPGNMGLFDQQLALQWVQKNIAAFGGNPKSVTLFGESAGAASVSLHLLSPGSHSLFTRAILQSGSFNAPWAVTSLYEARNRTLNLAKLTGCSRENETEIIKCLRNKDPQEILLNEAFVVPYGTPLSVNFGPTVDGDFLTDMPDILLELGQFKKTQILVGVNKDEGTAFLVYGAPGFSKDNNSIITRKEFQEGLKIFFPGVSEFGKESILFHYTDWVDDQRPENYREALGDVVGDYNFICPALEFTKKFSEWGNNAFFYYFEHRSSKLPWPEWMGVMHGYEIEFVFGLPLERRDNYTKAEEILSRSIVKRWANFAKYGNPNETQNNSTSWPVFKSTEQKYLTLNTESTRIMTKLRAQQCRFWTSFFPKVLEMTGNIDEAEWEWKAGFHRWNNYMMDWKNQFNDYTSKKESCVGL

Cc1cc(=O)oc2cc(OCCSC(=S)N3CCN(C(C)C)CC3)ccc12
IC50 (Acetylcholinesterase [1]): 1990 nM | inhibition at 0.05 h, 10 µM [2]: 28.1%

Cc1cc(=O)oc2cc(OCCSC(=S)N3CCC(N4CCCCC4)CC3)ccc12
IC50 (Acetylcholinesterase [1]): 1160 nM | inhibition at 0.05 h, 10 µM [2]: 24.3%

Cc1cc(=O)oc2cc(OCCCCCCCCSC(=S)N3CCCCC3)ccc12
inhibition (Acetylcholinesterase [3]): < 5% | inhibition at 0.05 h, 10 µM [2]: < 5%

Cc1cc(=O)oc2cc(OCCCSC(=S)N3CCCCC3)ccc12
IC50 (Acetylcholinesterase [1]): 290 nM | inhibition at 0.05 h, 10 µM [2]: 31.2%

Cc1cc(=O)oc2cc(OCCSC(=S)N3CCN(C)CC3)ccc12
inhibition (Acetylcholinesterase [3]): 36.8% | inhibition at 0.05 h, 10 µM [2]: < 5%

Cc1cc(=O)oc2cc(OCCCCCCSC(=S)N3CCCCC3)ccc12
IC50 (Acetylcholinesterase [1]): 610 nM | inhibition at 0.05 h, 10 µM [2]: 6.21%

Cc1cc(=O)oc2cc(OCCCCSC(=S)N3CCCCC3)ccc12
Ratio IC50 (Acetylcholinesterase [4]): 1.5 | Activity (Mus musculus [5]): Dose-dependent effect | viability at 24 h, 50 µM [6]: 90.1% | Activity (Mus musculus [7]): Non-Toxic | Time (Mus musculus [8]): 151 s | Activity (Mus musculus [9]): Non-Toxic | Activity (Mus musculus [10]): Non-Toxic | Time (Mus musculus [11]): 192 s | Time (Mus musculus [12]): 182 s | Activity [13]: inactive | Activity [14]: inactive | viability at 24 h, 12.5 µM [15]: 99.2% | viability at 24 h, 25 µM [16]: 101% | Activity [17]: inactive | IC50 (Acetylcholinesterase [1]): 27 nM | Activity (Mus musculus [18]): Non-Toxic | inhibition (Acetylcholinesterase [19]): Active | Activity (Mus musculus [20]): Non-Toxic | inhibition at 0.05 h, 10 µM [2]: 15.3% | Activity (Mus musculus [21]): Non-Toxic | Activity (Mus musculus [22]): Dose-dependent effect | Ka [23]: 1.69 ×10³ /M | Ki (Acetylcholinesterase [24]): 37.1 nM | Activity (Mus musculus [25]): Non-Toxic | Activity [26]: Active | Papp at 16 h, 25 ug/ml (in vitro): 9.21 ×10⁻⁶ cm/s | viability at 24 h, 100 µM [27]: 80.3%

Cc1cc(=O)oc2cc(OCCSC(=S)N3CCN(C4CC4)CC3)ccc12
inhibition (Acetylcholinesterase [3]): 18.7% | inhibition at 0.05 h, 10 µM [2]: < 5%

Cc1cc(=O)oc2cc(OCCSC(=S)N3CCC(O)CC3)ccc12
inhibition (Acetylcholinesterase [3]): < 5% | inhibition at 0.05 h, 10 µM [2]: < 5%

Cc1cc(=O)oc2cc(OCCSC(=S)N3CCN(c4ncccn4)CC3)ccc12
inhibition (Acetylcholinesterase [3]): 12.3% | inhibition at 0.05 h, 10 µM [2]: < 5%

CCN(CC)C(=S)SCCOc1ccc2c(C)cc(=O)oc2c1
IC50 (Acetylcholinesterase [1]): 1940 nM | inhibition at 0.05 h, 10 µM [2]: 10.9%

Cc1cc(=O)oc2cc(OCCSC(=S)N3CCCC3)ccc12
IC50 (Acetylcholinesterase [1]): 890 nM | inhibition at 0.05 h, 10 µM [2]: < 5%

Cc1cc(=O)oc2cc(OCCSC(=S)N(CCO)CCO)ccc12
inhibition (Acetylcholinesterase [3]): 34.5% | inhibition at 0.05 h, 10 µM [2]: < 5%

Cc1cc(=O)oc2cc(OCCSC(=S)N3CCCCC3)ccc12
IC50 (Acetylcholinesterase [1]): 470 nM | inhibition at 0.05 h, 10 µM [2]: 37.2%

Cc1cc(=O)oc2cc(OCCSC(=S)N3CCOCC3)ccc12
inhibition (Acetylcholinesterase [3]): 11% | inhibition at 0.05 h, 10 µM [2]: < 5%

Cc1cc(=O)oc2cc(OCCCCCSC(=S)N3CCCCC3)ccc12
IC50 (Acetylcholinesterase [1]): 210 nM | inhibition at 0.05 h, 10 µM [2]: 10.1%

Cc1cc(=O)oc2cc(OCCSC(=S)N(C)C)ccc12
IC50 (Acetylcholinesterase [1]): 10600 nM | inhibition at 0.05 h, 10 µM [2]: < 5%
